Measurements taken from patent US8202879B2, “Quinazoline derivatives having tyrosine kinase inhibitory activity” (Shionogi & Co., Ltd., priority 2005, dated 2012).
Like-named read-outs stand apart in the source and are kept apart here.

Key:
BT-474 = assay: In vitro cell proliferation inhibition, WST assay; type: cell-based, human; settings: BT-474 cells, cultured for 3 days, read-out: BT-474 (nM) proliferation inhibitory activity (IC50 value)
Procedure: Test of In Vitro Cell Proliferation Inhibition of Test Compound
As a human-derived cancer cell strain, BT-474 was used. Cells were all cultured in a 37° C., 5% CO2 incubator in a medium in which 10% bovine fetal serum (ICN) and 50 units ml penicillin/60 μg/ml streptomycin solution (GIBCO) were added to Dulbecco's Modified Essential Medium (DMEM, Nacalai Tesque, Inc).

EGFR = target: T1, EGFR (Homo sapiens, UniProt P00533); assay: Enzyme inhibitory activity on EGFR (time resolution fluorescence, biotinylated poly-Glu-Tyr substrate); type: biochemical
T1 construct: purchased Carna Biosciences, Inc; host or cells: insect cell expression system
T1 sequence (P00533 25-1210): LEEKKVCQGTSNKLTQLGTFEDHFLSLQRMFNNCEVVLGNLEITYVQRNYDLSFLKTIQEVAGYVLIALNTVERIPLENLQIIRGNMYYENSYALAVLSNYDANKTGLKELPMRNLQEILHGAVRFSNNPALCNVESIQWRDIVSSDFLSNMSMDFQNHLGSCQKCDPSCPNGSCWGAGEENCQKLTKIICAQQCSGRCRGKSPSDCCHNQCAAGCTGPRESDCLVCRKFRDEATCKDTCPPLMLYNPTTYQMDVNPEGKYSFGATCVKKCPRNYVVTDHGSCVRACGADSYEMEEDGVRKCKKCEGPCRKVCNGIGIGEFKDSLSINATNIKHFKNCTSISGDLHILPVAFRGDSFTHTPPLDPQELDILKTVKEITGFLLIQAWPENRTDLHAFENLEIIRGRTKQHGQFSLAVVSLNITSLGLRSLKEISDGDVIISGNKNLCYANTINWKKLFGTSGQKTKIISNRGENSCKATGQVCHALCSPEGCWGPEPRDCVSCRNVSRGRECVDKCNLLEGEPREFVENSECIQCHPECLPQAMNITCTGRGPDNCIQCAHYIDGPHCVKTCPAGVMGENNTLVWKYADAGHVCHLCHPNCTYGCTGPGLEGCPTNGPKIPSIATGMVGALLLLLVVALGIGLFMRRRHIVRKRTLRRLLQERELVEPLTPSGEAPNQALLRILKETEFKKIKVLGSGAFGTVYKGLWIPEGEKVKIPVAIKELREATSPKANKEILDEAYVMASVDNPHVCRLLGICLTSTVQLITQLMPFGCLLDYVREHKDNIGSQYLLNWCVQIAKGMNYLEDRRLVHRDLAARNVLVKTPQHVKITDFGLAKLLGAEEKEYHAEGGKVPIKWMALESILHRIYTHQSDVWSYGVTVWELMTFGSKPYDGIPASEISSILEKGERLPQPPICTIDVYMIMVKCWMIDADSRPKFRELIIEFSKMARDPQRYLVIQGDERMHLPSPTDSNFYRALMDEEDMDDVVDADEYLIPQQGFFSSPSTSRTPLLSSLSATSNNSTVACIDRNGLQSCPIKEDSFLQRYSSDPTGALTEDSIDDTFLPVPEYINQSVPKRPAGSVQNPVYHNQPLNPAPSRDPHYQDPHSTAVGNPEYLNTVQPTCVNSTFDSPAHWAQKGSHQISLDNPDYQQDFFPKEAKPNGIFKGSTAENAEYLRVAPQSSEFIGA
Procedure: (§1) Enzyme Inhibitory Activity of Test Compound on EGFR and HER2
(§2) EGFR and HER2 purified from an insect cell expression system, and a biotinylated substrate (synthetic peptide of glutamic acid:tyrosine=4:1) were added to a 384-well plate with ATP added thereto, and an enzyme reaction was performed at room temperature. After completion of the enzyme reaction, an anti-phosphorylated tyrosine antibody labeled with europium and streptavidin labeled with alphycocyanine were added, and a phosphorylated tyrosine residue was quantified by a time resolution fluorescence method.
(§3) A test compound was adjusted to 10 mM using DMSO.
(§4) Further, using 10% DMSO solution, a 1 mM solution was prepared, and this was regarded as a maximum concentration point.
(§5) As a dilution series, a 4-fold dilution series was prepared to a 10 stage.
(§6) As a buffer, TBS containing 10 mM MgCl2, 5 mM MnCl2, 0.2 mM Na3VO4, and 0.1% BSA was used.
(§7) As EGFR and HER2 enzymes, those purified from an insect cell expression system were purchased from Carna Biosciences, Inc.
An EGFR enzyme solution was adjusted to 250 ng/ml using a buffer.
(§8) As a substrate, biotinylated poly-Glu-Tyr (4:1, manufactured by CISbio) was used. A concentration was adjusted to 3.125 μg/ml using the above buffer.
An ATP concentration on study of the EGFR enzyme was adjusted to 125 μM using the buffer.
(§9) For preparing a detection reagent, TBS containing 30 mM EDTA, 0.8M KF and 0.1% BSA was used.
(§10) An anti-phosphorylated tyrosine antibody labeled with europium, PT-66K (CISbio) was adjusted to 195 ng/ml, and streptavidin labeled with alphycocyanine, SA-XL (CISbio) was adjusted to 5 μg/ml.
(§11) As an assay plate, a 384-well plate was used. Per one well, 1.1 μl of a test compound, 4 μl of a substrate solution, and 4 μl of an enzyme solution were added, and 2 μl of an ATP solution was added to initiate an enzyme reaction. The enzyme reaction was performed at room temperature for 60 minutes, and 10 μl of a detection reagent was added to complete the reaction. One hour after completion of the reaction, time resolution fluorescent measurement was performed.

HER2 = target: T2, HER2 (Homo sapiens, UniProt P04626); assay: Enzyme inhibitory activity on HER2 (time resolution fluorescence, biotinylated poly-Glu-Tyr substrate); type: biochemical
T2 construct: purchased Carna Biosciences, Inc; host or cells: insect cell expression system
T2 sequence (P04626 23-1255): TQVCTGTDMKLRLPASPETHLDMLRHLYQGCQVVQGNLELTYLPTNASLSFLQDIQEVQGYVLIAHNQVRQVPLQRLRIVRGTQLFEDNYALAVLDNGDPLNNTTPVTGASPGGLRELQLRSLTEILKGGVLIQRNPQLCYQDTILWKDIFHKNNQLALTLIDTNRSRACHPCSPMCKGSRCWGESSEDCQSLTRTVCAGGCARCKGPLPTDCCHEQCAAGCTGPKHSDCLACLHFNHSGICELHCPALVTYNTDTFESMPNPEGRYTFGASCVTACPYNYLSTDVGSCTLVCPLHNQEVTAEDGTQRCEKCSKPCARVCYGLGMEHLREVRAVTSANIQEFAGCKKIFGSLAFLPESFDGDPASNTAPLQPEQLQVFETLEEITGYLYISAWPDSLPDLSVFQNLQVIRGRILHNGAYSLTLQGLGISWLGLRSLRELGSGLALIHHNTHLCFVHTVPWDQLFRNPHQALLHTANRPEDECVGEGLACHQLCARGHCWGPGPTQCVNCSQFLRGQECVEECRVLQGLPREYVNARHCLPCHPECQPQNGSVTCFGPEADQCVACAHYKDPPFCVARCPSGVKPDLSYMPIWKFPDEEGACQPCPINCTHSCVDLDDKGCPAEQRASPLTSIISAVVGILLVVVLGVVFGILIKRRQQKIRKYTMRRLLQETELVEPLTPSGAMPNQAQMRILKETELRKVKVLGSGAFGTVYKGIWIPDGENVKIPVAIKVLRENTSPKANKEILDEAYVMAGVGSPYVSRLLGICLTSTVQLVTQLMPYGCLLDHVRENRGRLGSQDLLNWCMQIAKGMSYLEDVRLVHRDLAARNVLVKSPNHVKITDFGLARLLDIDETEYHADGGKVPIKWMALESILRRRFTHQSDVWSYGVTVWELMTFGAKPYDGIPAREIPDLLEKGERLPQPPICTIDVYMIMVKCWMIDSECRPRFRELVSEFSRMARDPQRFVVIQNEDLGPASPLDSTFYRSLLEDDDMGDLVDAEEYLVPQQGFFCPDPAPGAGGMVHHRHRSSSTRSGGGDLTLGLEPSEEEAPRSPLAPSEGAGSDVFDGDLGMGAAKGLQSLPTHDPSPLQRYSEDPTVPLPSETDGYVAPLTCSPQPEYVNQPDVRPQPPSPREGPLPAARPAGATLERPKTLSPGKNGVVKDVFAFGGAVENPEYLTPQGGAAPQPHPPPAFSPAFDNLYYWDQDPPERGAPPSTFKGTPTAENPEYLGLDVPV
Procedure: as §1, §2, §3, §4, §5, §6, §7
HER2 kinase was adjusted to 1000 ng/ml using a buffer.
as §8
An ATP concentration on study of the HER2 enzyme was adjusted to 290 μM.
as §9, §10, §11

[1] = EGFR purified from insect cell expression system, ATP solution 125 μM, room temperature, 60 minutes
[2] = HER2 purified from insect cell expression system, ATP solution 290 μM, room temperature, 60 minutes
[3] = enzyme reaction at room temperature for 60 minutes

Row | IC50 (BT-474) [nM] | IC50 (EGFR; [1]) [nM] | IC50 (HER2; [2]) [nM] | IC50 (BT-474; Homo sapiens, BT-474, 72 h) [nM] | IC50 (EGFR; [3]) [nM] | IC50 (HER2; [3]) [nM] | Compound
1 | 10 | 14 | 14 |  |  |  | CC#C/C(=N\OC[C@H]1CNCCN1)c1ccc2ncnc(Nc3ccc(OCc4cccc(F)c4)c(Cl)c3)c2c1 [VIII-105]
2 |  | 160 | 148 | 16 |  |  | CC#C/C(=N\OC[C@@H]1NCCO[C@H]1C)c1ccc2ncnc(Nc3ccc(OCc4cccc(F)c4)c(Cl)c3)c2c1 [VIII-106]
3 | 23 | 150 | 135 |  |  |  | CC#C/C(=N\OC[C@H]1NCCO[C@@H]1C)c1ccc2ncnc(Nc3ccc(OCc4cccc(F)c4)c(Cl)c3)c2c1 [VIII-107]
4 |  | 53 | 56 | 31 |  |  | CC#CC(=NOCC1CN(C)CCN1C)c1ccc2ncnc(Nc3ccc(OCc4cccc(F)c4)c(Cl)c3)c2c1 (stereo not drawn) [VIII-108]
5 |  | 23 | 18 | 40 |  |  | CC#C/C(=N\OC[C@@H]1CNC[C@H](C)O1)c1ccc2ncnc(Nc3ccc(OCc4cccc(F)c4)c(Cl)c3)c2c1 [VIII-109]
6 | 21 | 29 | 35 |  |  |  | CC#C/C(=N\OC[C@@H]1CNC[C@@H](C)O1)c1ccc2ncnc(Nc3ccc(OCc4cccc(F)c4)c(Cl)c3)c2c1 [VIII-110]
7 | 15 | 37 | 55 |  |  |  | CC#C/C(=N\OC[C@H]1CNCC(=O)N1)c1ccc2ncnc(Nc3ccc(OCc4cccc(F)c4)c(Cl)c3)c2c1 [VIII-111]
8 | 8 | 11 | 13 |  |  |  | CC#C/C(=N\OC[C@H]1CN(CCO)CCN1)c1ccc2ncnc(Nc3ccc(OCc4cccc(F)c4)c(Cl)c3)c2c1 [VIII-112]
9 |  | 9.7 | 12 | 13 |  |  | CC#C/C(=N\OC[C@H]1CN(C)CCN1)c1ccc2ncnc(Nc3ccc(OCc4cccc(F)c4)c(Cl)c3)c2c1 [VIII-113]
10 | 37 | 57 | 69 |  |  |  | CC#C/C(=N\OC[C@H]1CNCCO1)c1ccc2ncnc(Nc3ccc(OCc4cccc(F)c4)c(Cl)c3)c2c1 [VIII-114]
11 | 50 | 37 | 25 |  |  |  | CC#C/C(=N\OC[C@H]1CNC[C@@H](C)O1)c1ccc2ncnc(Nc3ccc(OCc4cccc(F)c4)c(Cl)c3)c2c1 [VIII-116]
12 | 20 | 47 | 53 |  |  |  | CC#C/C(=N\OC[C@H]1CNC[C@H](C)O1)c1ccc2ncnc(Nc3ccc(OCc4cccc(F)c4)c(Cl)c3)c2c1 [VIII-117]
13 | 22 | 197 | 223 |  |  |  | CC#C/C(=N\OC[C@H]1CS(=O)(=O)CCN1)c1ccc2ncnc(Nc3ccc(OCc4cccc(F)c4)c(Cl)c3)c2c1 [VIII-118]
14 | 31 | 81 | 77 |  |  |  | CC#C/C(=N\OC[C@@H]1CNCC(=O)N1)c1ccc2ncnc(Nc3ccc(OCc4cccc(F)c4)c(Cl)c3)c2c1 [VIII-119]
15 |  | 33 | 29 | 32 |  |  | CNCCO/N=C(\C#CC1CC1)c1ccc2ncnc(Nc3ccc(OCc4cccc(F)c4)c(Cl)c3)c2c1 [VIII-120]
16 | 10 | 17 | 18 |  |  |  | CNCCO/N=C(\C#CCO)c1ccc2ncnc(Nc3ccc(OCc4cccc(F)c4)c(Cl)c3)c2c1 [VIII-121]
17 |  | 29 | 24 | 14 |  |  | OCC#C/C(=N\OCCN1CCCC1)c1ccc2ncnc(Nc3ccc(OCc4cccc(F)c4)c(Cl)c3)c2c1 [VIII-122]
18 | 31 |  |  |  | 24 | 38 | CNCCO/N=C(\C#CCOC)c1ccc2ncnc(Nc3ccc(OCc4cccc(F)c4)c(Cl)c3)c2c1 [VIII-123]
19 |  |  |  | 14 | 40 | 38 | COCC#C/C(=N\OCCN1CCCC1)c1ccc2ncnc(Nc3ccc(OCc4cccc(F)c4)c(Cl)c3)c2c1 [VIII-124]
20 | 61 |  |  |  | 37 | 35 | CCCC#CC(=NOCCNC)c1ccc2ncnc(Nc3ccc(OCc4cccc(F)c4)c(Cl)c3)c2c1 [VIII-127]
21 |  |  |  | 37 | 15 | 17 | CC#C/C(=N\OCCN1CCCC(O)C1)c1ccc2ncnc(Nc3ccc(OCc4ccccn4)c(Cl)c3)c2c1 (stereo not drawn) [VIII-128]

Row | IC50 (BT-474) [nM] | IC50 (EGFR; [1]) [nM] | IC50 (HER2; [2]) [nM] | IC50 (BT-474; Homo sapiens, BT-474, 72 h) [nM] | IC50 (EGFR; [3]) [nM] | IC50 (HER2; [3]) [nM] | Compound
22 |  |  |  | 12 | 7.1 | 6.3 | CC#C/C(=N\OC[C@@H](C)N)c1ccc2ncnc(Nc3ccc(OCc4ccccn4)c(Cl)c3)c2c1 [VIII-129]
23 |  |  |  | 50 | 8.1 | 5.2 | CC#C/C(=N\OCCNC(C)COC)c1ccc2ncnc(Nc3ccc(OCc4ccccn4)c(Cl)c3)c2c1 (stereo not drawn) [VIII-130]
24 |  |  |  | 14 | 5.8 | 4.4 | CC#C/C(=N\OC[C@@H](COC)NC)c1ccc2ncnc(Nc3ccc(OCc4ccccn4)c(Cl)c3)c2c1 [VIII-131]
25 |  |  |  | 18 | 14 | 14 | CC#C/C(=N\OCCNCCS(C)(=O)=O)c1ccc2ncnc(Nc3ccc(OCc4ccccn4)c(Cl)c3)c2c1 [VIII-132]
26 |  |  |  | 43 | 8.4 | 7.1 | CC#C/C(=N\OCCNCCCN1CCCC1=O)c1ccc2ncnc(Nc3ccc(OCc4ccccn4)c(Cl)c3)c2c1 [VIII-133]
27 |  |  |  | 14 | 7.1 | 7.4 | CC#C/C(=N\OCCNCCNC(C)=O)c1ccc2ncnc(Nc3ccc(OCc4ccccn4)c(Cl)c3)c2c1 [VIII-134]
28 |  |  |  | 28 | 7.6 | 8.1 | CC#C/C(=N\OCCNCCOC(N)=O)c1ccc2ncnc(Nc3ccc(OCc4ccccn4)c(Cl)c3)c2c1 [VIII-135]
29 |  |  |  | 53 | 21 | 21 | CC#C/C(=N\OCCNC1CC1)c1ccc2ncnc(Nc3ccc(OCc4ccccn4)c(Cl)c3)c2c1 [VIII-136]
30 |  |  |  | 78 | 13 | 14 | CC#C/C(=N\OCCNC[C@@H]1CCCO1)c1ccc2ncnc(Nc3ccc(OCc4ccccn4)c(Cl)c3)c2c1 [VIII-137]
31 |  |  |  | 32 | 5 | 3.8 | CC#C/C(=N\OCCNC[C@@H](C)CO)c1ccc2ncnc(Nc3ccc(OCc4ccccn4)c(Cl)c3)c2c1 [VIII-139]
32 |  |  |  | 30 | 5.5 | 4.3 | CC#C/C(=N\OCCNC[C@H](C)CO)c1ccc2ncnc(Nc3ccc(OCc4ccccn4)c(Cl)c3)c2c1 [VIII-140]
33 |  |  |  | 46 | 10 | 7.9 | CC#C/C(=N\OCCNC1CCOCC1)c1ccc2ncnc(Nc3ccc(OCc4ccccn4)c(Cl)c3)c2c1 [VIII-141]
34 |  |  |  | 31 | 5.5 | 4.4 | CC#C/C(=N\OCCNC1CCN(S(C)(=O)=O)CC1)c1ccc2ncnc(Nc3ccc(OCc4ccccn4)c(Cl)c3)c2c1 [VIII-142]
35 |  |  |  | 24 | 3.5 | 3.6 | CC#C/C(=N\OCCNCCO)c1ccc2ncnc(Nc3ccc(OCc4ccccn4)c(Cl)c3)c2c1 [VIII-143]
36 |  |  |  | 21 | 9.4 | 8.9 | CC#C/C(=N\OCCN(C)CCO)c1ccc2ncnc(Nc3ccc(OCc4ccccn4)c(Cl)c3)c2c1 [VIII-145]
37 |  |  |  | 45 | 12 | 10 | CC#C/C(=N\OCCN(C)CCOC)c1ccc2ncnc(Nc3ccc(OCc4ccccn4)c(Cl)c3)c2c1 [VIII-146]
38 |  |  |  | 25 | 13 | 13 | CC#C/C(=N\OCCCNC)c1ccc2ncnc(Nc3ccc(OCc4ccccn4)c(Cl)c3)c2c1 [VIII-147]
39 |  |  |  | 26 | 6.1 | 5.8 | CC#C/C(=N\OCCN1CCCC1)c1ccc2ncnc(Nc3ccc(OCc4ccccn4)c(Cl)c3)c2c1 [VIII-148]
40 |  |  |  | 28 | 13 | 14 | CC#C/C(=N\OCCN1CC[C@@H](NC(C)=O)C1)c1ccc2ncnc(Nc3ccc(OCc4ccccn4)c(Cl)c3)c2c1 [VIII-149]
41 |  |  |  | 30 | 12 | 11 | CC#C/C(=N\OCCN1CCC[C@@H]1CO)c1ccc2ncnc(Nc3ccc(OCc4ccccn4)c(Cl)c3)c2c1 [VIII-150]
